Tests used:
CDK9 = target: T1, CDK9 (Homo sapiens, UniProt P50750); assay: CDK protein degradation activity (Western blotting), CDK9; type: cell-based; details: MDA-MB-231 cells, 16 hours, Western blot
T1 construct: endogenous in cells; host or cells: MDA-MB-231
In short: (§1)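 Protein levels were read by Western blot densitometry, tubulin serving as loading reference. Beforehand, MDA-MB-231 cells had been exposed for 16 hours to 100 nM, 1 μM or 10 μM compound, DMSO as control.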

CDK2 = target: T2, CDK2 (Homo sapiens, UniProt P24941); assay: CDK protein degradation activity (Western blotting), CDK2; type: cell-based; details: MDA-MB-231 cells, 16 hours, Western blot
T2 construct: endogenous in cells; host or cells: MDA-MB-231
In short: as §1

T1 sequence (P50750 whole entry): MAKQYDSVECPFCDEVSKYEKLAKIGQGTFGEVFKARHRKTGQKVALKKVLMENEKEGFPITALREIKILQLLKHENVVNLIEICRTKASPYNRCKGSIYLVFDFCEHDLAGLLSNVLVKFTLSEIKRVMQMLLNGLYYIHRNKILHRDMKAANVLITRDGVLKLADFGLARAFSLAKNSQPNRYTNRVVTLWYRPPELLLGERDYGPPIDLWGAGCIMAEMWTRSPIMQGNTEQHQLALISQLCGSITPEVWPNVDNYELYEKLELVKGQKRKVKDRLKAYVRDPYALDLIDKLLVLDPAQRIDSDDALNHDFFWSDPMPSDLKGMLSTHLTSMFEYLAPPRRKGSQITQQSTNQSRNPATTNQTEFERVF

| Structure (SMILES) | Enzyme degradation CDK9 (% remaining) @ 0.1 μM (CDK9) | Enzyme degradation CDK9 (% remaining) @ 1 μM (CDK9) | Enzyme degradation CDK9 (% remaining) @ 10 μM (CDK9) | Enzyme degradation CDK2 (% remaining) @ 0.1 μM (CDK2) | Enzyme degradation CDK2 (% remaining) @ 1 μM (CDK2) | Enzyme degradation CDK2 (% remaining) @ 10 μM (CDK2) |
| --- | --- | --- | --- | --- | --- | --- |
| O=C1CC[C@H](N2C(=O)c3ccc(N4CCC(C(=O)N5CCC(CCCN6CCN(c7ccc(Nc8ncnc9c8ncn9C8CC(NC(=O)Cc9ccccc9)C8)cc7)CC6)CC5)CC4)cc3C2=O)C(=O)N1 (stereo partly drawn) [Compound 354, N-((1s,3s)-3-(6-((4-(4-(3-(1-(1-(2-(2,6-dioxopiperidin-3-yl)-1,3-dioxoisoindolin-5-yl)piperidin-4-carbonyl)piperidin-4-yl)propyl)piperazin-1-yl)phenyl)amino)-9H-purin-9-yl)cyclobutyl)-2-phenylacetamide] | 10/10/10% | 10/10/10% | 10/10/10% | 50% | 50% | 60% |
| Cc1cccc(C(=O)NC2CC(n3cnc4c(NCCC5CCN(CC6CCN(C(=O)C7CCN(c8ccc9c(c8)C(=O)N([C@H]8CCC(=O)NC8=O)C9=O)CC7)CC6)CC5)ncnc43)C2)n1 (stereo partly drawn) [Compound 355, N-((1s,3s)-3-(6-((2-(1-((1-(1-(2-(2,6-dioxopiperidin-3-yl)-1,3-dioxoisoindolin-5-yl)piperidin-4-carbonyl)piperidin-4-yl)methyl)piperidin-4-yl)ethyl)amino)-9H-purin-9-yl)cyclobutyl)-6-methylpicolinamide] | 10% | 0% | 0% | 70% | 60% | 60% |
| O=C1CC[C@H](n2nnc3ccc(N4CCN(C5CCN(c6ccc(Nc7ncnc8c7ncn8C7CC(NC(=O)Cc8ccccc8)C7)cc6)CC5)CC4)cc3c2=O)C(=O)N1 (stereo partly drawn) [Compound 357, N-((1s,3s)-3-(6-((4-(4-(4-(3-(2,6-dioxopiperidin-3-yl)-4-oxo-3,4-dihydrobenzo[d][1,2,3]triazin-6-yl)piperazin-1-yl)piperidin-1-yl)phenyl)amino)-9H-purin-9-yl)cyclobutyl)-2-phenylacetamide] | 80% | 30% | 30% | 70% | 20% | 20% |
| O=C1CC[C@H](N2C(=O)c3ccc(N4CCC(C(=O)N5CCN(C6CC7(CCN(c8ccc(Nc9ncnc%10c9ncn%10[C@H]9C[C@@H](NC(=O)Cc%10ccccc%10)C9)cc8)CC7)C6)CC5)CC4)cc3C2=O)C(=O)N1 [Compound 361, N-((1s,3s)-3-(6-((4-(2-(4-(1-(2-(2,6-dioxopiperidin-3-yl)-1,3-dioxoisoindolin-5-yl)piperidin-4-carbonyl)piperazin-1-yl)-7-azaspiro[3.5]nonan-7-yl)phenyl)amino)-9H-purin-9-yl)cyclobutyl)-2-phenylacetamide] | 50% | 10% | 10% | 20% | 10% | 10% |
| O=C1CC[C@H](N2C(=O)c3ccc(N4CC(C(=O)N5CCN(CCC6CCN(c7ccc(Nc8ncnc9c8ncn9[C@H]8C[C@@H](NC(=O)Cc9ccccc9)C8)cc7)CC6)CC5)C4)cc3C2=O)C(=O)N1 [Compound 362, N-((1s,3s)-3-(6-((4-(4-(2-(4-(1-(2-(2,6-dioxopiperidin-3-yl)-1,3-dioxoisoindolin-5-yl)azetidin-3-carbonyl)piperazin-1-yl)ethyl)piperidin-1-yl)phenyl)amino)-9H-purin-9-yl)cyclobutyl)-2-phenylacetamide] | 40% | 0% | 0% | 90% | 80% | 70% |
| O=C1CC[C@H](N2C(=O)c3ccc(N4CCC(C(=O)N5CCN(CCC6CCN(c7ccc(Nc8ncnc9c8ncn9[C@H]8C[C@@H](NC(=O)Cc9ccccc9)C8)cc7)CC6)CC5)CC4)cc3C2=O)C(=O)N1 [Compound 363, N-((1s,3s)-3-(6-((4-(4-(2-(4-(1-(2-(2,6-dioxopiperidin-3-yl)-1,3-dioxoisoindolin-5-yl)piperidin-4-carbonyl)piperazin-1-yl)ethyl)piperidin-1-yl)phenyl)amino)-9H-purin-9-yl)cyclobutyl)-2-phenylacetamide] | 40% | 0% | 0% | 100% | 50% | 30% |
| O=C1CC[C@H](N2C(=O)c3ccc(N4CC(C(=O)N5CCN(C6CCN(c7ccc(Nc8ncnc9c8ncn9C8CC(NC(=O)Cc9ccccc9)C8)cc7)CC6)CC5)C4)cc3C2=O)C(=O)N1 (stereo partly drawn) [Compound 364, N-((1s,3s)-3-(6-((4-(4-(4-(1-(2-(2,6-dioxopiperidin-3-yl)-1,3-dioxoisoindolin-5-yl)azetidin-3-carbonyl)piperazin-1-yl)piperidin-1-yl)phenyl)amino)-9H-purin-9-yl)cyclobutyl)-2-phenylacetamide] | 70% | 10% | 10% | 100% | 50% | 50% |
| O=C1CC[C@H](N2C(=O)c3ccc(N4CCC(C(=O)N5CCN(C6CCN(c7ccc(Nc8ncnc9c8ncn9C8CC(NC(=O)Cc9ccccc9)C8)cc7)CC6)CC5)CC4)cc3C2=O)C(=O)N1 (stereo partly drawn) [Compound 365, N-((1s,3s)-3-(6-((4-(4-(4-(1-(2-(2,6-dioxopiperidin-3-yl)-1,3-dioxoisoindolin-5-yl)piperidin-4-carbonyl)piperazin-1-yl)piperidin-1-yl)phenyl)amino)-9H-purin-9-yl)cyclobutyl)-2-phenylacetamide] | 30% | 10% | 10% | 60/60/60% | 60/60/60% | 60/60/60% |

Next, values leading:

| Enzyme degradation CDK9 (% remaining) @ 0.1 μM (CDK9) | Enzyme degradation CDK9 (% remaining) @ 1 μM (CDK9) | Enzyme degradation CDK9 (% remaining) @ 10 μM (CDK9) | Enzyme degradation CDK2 (% remaining) @ 0.1 μM (CDK2) | Enzyme degradation CDK2 (% remaining) @ 1 μM (CDK2) | Enzyme degradation CDK2 (% remaining) @ 10 μM (CDK2) | Structure (SMILES) |
| --- | --- | --- | --- | --- | --- | --- |
| 10% | 0% | 0% | 10% | 0% | 0% | O=C1CC[C@H](N2C(=O)c3ccc(N4CCC(C(=O)N5CCN(CCCC6CCN(c7ccc(Nc8ncnc9c8ncn9[C@H]8C[C@@H](NC(=O)Cc9ccccc9)C8)cc7)CC6)CC5)CC4)cc3C2=O)C(=O)N1 [Compound 367, N-((1s,3s)-3-(6-((4-(4-(3-(4-(1-(2-(2,6-dioxopiperidin-3-yl)-1,3-dioxoisoindolin-5-yl)piperidin-4-carbonyl)piperazin-1-yl)propyl)piperidin-1-yl)phenyl)amino)-9H-purin-9-yl)cyclobutyl)-2-phenylacetamide] |
| 0/0/0% | 0/0/0% | 0/0/0% | 0/0/0% | 0/0/0% | 0/0/0% | O=C1CC[C@H](n2nnc3ccc(N4CCN(CC5CCN(c6ccc(Nc7ncnc8c7ncn8C7CC(NC(=O)c8c(Cl)cccc8Cl)C7)cc6)CC5)CC4)cc3c2=O)C(=O)N1 (stereo partly drawn) [Compound 370, 2,6-dichloro-N-((1s,3s)-3-(6-((4-(4-((4-(3-(2,6-dioxopiperidin-3-yl)-4-oxo-3,4-dihydrobenzo[d][1,2,3]triazin-6-yl)piperazin-1-yl)methyl)piperidin-1-yl)phenyl)amino)-9H-purin-9-yl)cyclobutyl)benzamide] |
| 0/0/0% | 0/0/0% | 0/0/0% | 0/0/0% | 0/0/0% | 0/0/0% | O=C1CC[C@H](n2nnc3ccc(N4CCC(CN5CCN(c6ccc(Nc7ncnc8c7ncn8C7CC(NC(=O)c8c(Cl)cccc8Cl)C7)cc6)CC5)CC4)cc3c2=O)C(=O)N1 (stereo partly drawn) [Compound 371, 2,6-dichloro-N-((1s,3s)-3-(6-((4-(4-((1-(3-(2,6-dioxopiperidin-3-yl)-4-oxo-3,4-dihydrobenzo[d][1,2,3]triazin-6-yl)piperidin-4-yl)methyl)piperazin-1-yl)phenyl)amino)-9H-purin-9-yl)cyclobutyl)benzamide] |
| 0/0/0% | 0/0/0% | 0/0/0% | 90% | 50% | 50% | O=C1CC[C@H](N2C(=O)c3ccc(N4CC(C(=O)N5CCC(CCCN6CCN(c7ccc(Nc8ncnc9c8ncn9C8CC(NC(=O)Cc9ccccc9)C8)cc7)CC6)CC5)C4)cc3C2=O)C(=O)N1 (stereo partly drawn) [Compound 372, N-((1s,3s)-3-(6-((4-(4-(3-(1-(1-(2-(2,6-dioxopiperidin-3-yl)-1,3-dioxoisoindolin-5-yl)azetidin-3-carbonyl)piperidin-4-yl)propyl)piperazin-1-yl)phenyl)amino)-9H-purin-9-yl)cyclobutyl)-2-phenylacetamide] |
